Values after ≈ are worked out from the molar mass of the structure shown. “Also recorded” adds a separate entry of the source. Like-named read-outs stand apart in the source and are kept apart here.
Legend:
human ABCB1 [1] = target: T1, human ABCB1 (Homo sapiens, UniProt P08183); test: Cellular transport assay, Calcein-AM uptake in ABCB1-overexpressing PLB cells; type: cell-based; conditions: S6 summary table; further: key: 0: no observed effect; +: effect observed in the assay; In the ATPase assay showing only inhibition, the - sign is applied
Method: (§1) For cellular transport assays, mammalian PLB (lymphoblastoid) cell lines, overexpressing ABCB1 or ABCG2 were used. The parental PLB cell line was purchased from ATCC, and ABCB1 or ABCG2 overexpressing cell lines were established by using lentiviral vectors for human ABC transporters as described earlier in [29]. The transport assays were carried out in 96-well plates. 1x10^5 cells were incubated in the presence of 0.1 μM Calcein-AM or 1 μM DCV (Dye Cycler Violet) for the ABCB1 and for the ABCG2 assays, respectively. The assay was performed in HPMI medium (NaCl 120 mM, KCl 5 mM, MgCl2 0.4 mM, CaCl2 0.04 mM, HEPES 10 mM, NaHCO3 10 mM, glucose 10 mM, Na2HPO4 5 mM; pH 7.4). Fluorescence of the cells was detected using a Victor X3 plate reader (for Calcein, exc. at 485 nm, em. at 535 nm) or the Enspire 2300 (Perkin Elmer) plate reader (for DCV, exc. at 360 nm, em. at 440 nm). Kinetics of fluorescence intensity changes were analyzed to determine relative inhibition, compared to that of a reference agent, providing full inhibition of the ABC transporter. Two of the Vichem compounds examined (VCC979812 and VCC38977) were not compatible with the DCV uptake assay because of their intrinsic fluorescence, therefore for these two compounds ABCG2 transport inhibition was characterized by following mitoxantrone uptake. Mitoxantrone uptake was measured by flow cytometry (BD FACSCanto at 633 nm) by 20 minutes incubation in the presence of 7.5 μM mitoxantrone. Each compound was measured in at least three independent experiments with three parallels in each case. DMSO, used as a solvent of compounds had no effect in this assay at the applied concentration.

[2] = test system: ABCB1-overexpressing A431 cell line; conditions: 72 h; for Resistance modulation by ABCB1 (fold increase in IC50): ABCB1-expressing versus parental A431 cells; for ABC transporter modified cytotoxicity, ABCB1 (summary): human
parental A431 cell line = test: Cytotoxicity, PrestoBlue 72 h, parental A431; type: cell-based, human; conditions: Non-toxic = not toxic up to 20 μM, read-out: Toxicity in parental A431 cell line, IC50
Method: (§2) The toxic effects of the selected MtTopo-I inhibitory Vichem compounds were tested in three cell lines, HFF (human foreskin fibroblast), HEK293 (human embryonic kidney) and A431 (human epidermoid carcinoma) cell lines, obtained from ATCC. Establishment of ABC transporter-expressing A431cell lines was achieved by retroviral transduction of the cells as described previously.
(§3) For cytotoxicity measurements the cells were seeded in a 96-well culture plate at 5,000 cells/well (A431, HEK293) or 6000 cells/well (HFF) and incubated overnight. […] After 72 hours of incubation viability was assessed by PrestoBlue® assay (Invitrogen). IC50 values were obtained by sigmoidal curve fitting in the GraphPad Prism software. All experiments were performed in triplicates and repeated at least in three independent experiments. DMSO, used as solvent of the compounds, had no effect on viability at the applied concentration.

human ABCB1 [3] = target: T1, human ABCB1; test: Vanadate-sensitive ATPase activity assay in Sf9 membrane vesicles, ABCB1; type: biochemical; design: made in house; host or cells: Sf9 insect cells (baculovirus), membrane vesicles; ABCB1 ATPase Vmax: unit not given here; conditions: for Effect on ABCB1-ATPase activity (in words): Sf9 membrane vesicles, 0.1–10 μM for the stimulation in b53; for ABCB1 ATPase Vmax: vanadate-sensitive ATPase, from dose-response curves, basal 5.7±0.7; for ABC transporter ATPase assay, ABCB1 (summary): S6 summary table; for ABCB1 ATPase, concentration at Vmax: concentration at which Vmax was seen; on ABC transporter ATPase assay, ABCB1 (summary): key: 0: no observed effect; +: effect observed in the assay; In the ATPase assay showing only inhibition, the - sign is applied
MtTopo-I = target: T2, MtTopo-I (Mycobacterium tuberculosis, UniProt P9WG49); test: DNA relaxation assay of supercoiled pUC18 DNA by MtTopo-I; type: biochemical; conditions: minimum concentration providing complete inhibition
T2 construct: made in house; host or cells: E. coli

[4] = test system: ABCG2-overexpressing A431 cell line; conditions: 72 h; for Resistance modulation by ABCG2 (fold increase in IC50): ABCG2-expressing versus parental A431 cells; for ABC transporter modified cytotoxicity, ABCG2 (summary): human
HFF cell line = test: Cytotoxicity, PrestoBlue 72 h, HFF; type: cell-based, human; conditions: Non-toxic = not toxic up to 20 μM, read-out: Toxicity in HFF cell line, IC50
Method: as §2, §3

HEK293 cell line = test: Cytotoxicity, PrestoBlue 72 h, HEK293; type: cell-based, human; conditions: for IC50: Homo sapiens, HEK293, Non-toxic = not toxic up to 20 μM, read-out: Toxicity in HEK293 cell line, IC50
Method: as §2, §3

human ABCG2 [5] = target: T3, human ABCG2 (Homo sapiens, UniProt Q9UNQ0); test: Cellular transport assay, DCV or mitoxantrone uptake in ABCG2-overexpressing PLB cells; type: cell-based; design: expressed in transfected cells; host or cells: PLB (human lymphoblastoid) cells, lentiviral transduction; conditions: S6 summary table; further: key: 0: no observed effect; +: effect observed in the assay; In the ATPase assay showing only inhibition, the - sign is applied
T3 sequence (Q9UNQ0 1-655): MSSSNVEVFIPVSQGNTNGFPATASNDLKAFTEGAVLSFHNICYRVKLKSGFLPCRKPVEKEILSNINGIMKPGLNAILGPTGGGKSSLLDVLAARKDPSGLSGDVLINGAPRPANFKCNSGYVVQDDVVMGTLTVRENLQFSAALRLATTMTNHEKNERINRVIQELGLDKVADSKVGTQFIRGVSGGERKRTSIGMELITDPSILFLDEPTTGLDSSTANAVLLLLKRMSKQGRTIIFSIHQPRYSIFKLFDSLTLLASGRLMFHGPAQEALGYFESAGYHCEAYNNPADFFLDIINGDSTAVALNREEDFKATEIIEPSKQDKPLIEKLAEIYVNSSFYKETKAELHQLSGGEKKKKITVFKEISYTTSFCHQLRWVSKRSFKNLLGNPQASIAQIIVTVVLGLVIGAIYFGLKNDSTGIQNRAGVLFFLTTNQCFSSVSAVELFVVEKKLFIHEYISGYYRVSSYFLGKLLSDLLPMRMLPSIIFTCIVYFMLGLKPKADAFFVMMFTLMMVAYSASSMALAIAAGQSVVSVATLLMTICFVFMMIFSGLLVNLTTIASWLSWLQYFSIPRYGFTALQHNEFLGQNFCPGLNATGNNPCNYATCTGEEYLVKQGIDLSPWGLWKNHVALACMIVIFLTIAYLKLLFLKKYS
Method: as §1

[6] = test system: HFF, HEK293 and A431 cell lines; type: cell-based, human
Method: as §2, §3

human ABCG2 [7] = target: T3, human ABCG2; test: Vanadate-sensitive ATPase activity assay in Sf9 membrane vesicles, ABCG2; type: biochemical; design: made in house; host or cells: Sf9 insect cells (baculovirus), membrane vesicles; ABCG2 ATPase, concentration at Vmax: unit not given here; conditions: for ABC transporter ATPase assay, ABCG2 (summary): S6 summary table; for ABCG2 ATPase Vmax: vanadate-sensitive ATPase, from dose-response curves, basal 22±1.4; for ABCG2 ATPase, concentration at Vmax: concentration at which Vmax was seen
H37Rv Mtb strain = test: H37Rv growth inhibition, resazurin reduction microplate assay (REMA); type: cell-based, Mycobacterium tuberculosis; conditions: for MIC90: Mycobacterium tuberculosis, H37RV, read-out: MIC90 of compounds in H37Rv growth test; for Toxicity in H37Rv assay (summary): S6 summary table; for Growth inhibition of H37Rv mycobacteria (in words): tested up to 20 μM
[8] = minimum concentration providing 90% growth inhibition, 20 to 0.04 μM, N.I. = no inhibition observed up to 20 μM

T2 sequence (P9WG49 whole entry): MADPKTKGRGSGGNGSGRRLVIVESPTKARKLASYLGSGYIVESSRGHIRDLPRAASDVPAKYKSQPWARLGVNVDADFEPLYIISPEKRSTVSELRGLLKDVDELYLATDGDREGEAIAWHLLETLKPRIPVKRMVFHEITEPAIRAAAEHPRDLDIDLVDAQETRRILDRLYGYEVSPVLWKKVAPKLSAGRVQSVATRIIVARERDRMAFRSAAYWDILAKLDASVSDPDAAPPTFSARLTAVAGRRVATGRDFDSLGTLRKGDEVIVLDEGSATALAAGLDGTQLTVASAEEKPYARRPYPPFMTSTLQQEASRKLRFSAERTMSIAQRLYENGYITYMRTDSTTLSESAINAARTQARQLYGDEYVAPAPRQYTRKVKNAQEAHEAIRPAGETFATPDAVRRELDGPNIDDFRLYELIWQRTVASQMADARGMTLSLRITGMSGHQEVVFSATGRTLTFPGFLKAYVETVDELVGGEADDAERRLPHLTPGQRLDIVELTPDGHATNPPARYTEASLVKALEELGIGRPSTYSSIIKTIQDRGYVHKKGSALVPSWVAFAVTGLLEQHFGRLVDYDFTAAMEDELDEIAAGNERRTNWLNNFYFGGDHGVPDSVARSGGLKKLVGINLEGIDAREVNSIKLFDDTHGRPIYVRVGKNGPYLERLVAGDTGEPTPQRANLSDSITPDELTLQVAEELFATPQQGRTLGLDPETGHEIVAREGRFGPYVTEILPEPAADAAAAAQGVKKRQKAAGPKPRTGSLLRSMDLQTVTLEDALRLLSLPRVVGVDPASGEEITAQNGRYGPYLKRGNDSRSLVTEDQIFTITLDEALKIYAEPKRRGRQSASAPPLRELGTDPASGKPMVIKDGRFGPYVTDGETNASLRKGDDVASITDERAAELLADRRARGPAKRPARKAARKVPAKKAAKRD
T1 sequence (P08183 whole entry): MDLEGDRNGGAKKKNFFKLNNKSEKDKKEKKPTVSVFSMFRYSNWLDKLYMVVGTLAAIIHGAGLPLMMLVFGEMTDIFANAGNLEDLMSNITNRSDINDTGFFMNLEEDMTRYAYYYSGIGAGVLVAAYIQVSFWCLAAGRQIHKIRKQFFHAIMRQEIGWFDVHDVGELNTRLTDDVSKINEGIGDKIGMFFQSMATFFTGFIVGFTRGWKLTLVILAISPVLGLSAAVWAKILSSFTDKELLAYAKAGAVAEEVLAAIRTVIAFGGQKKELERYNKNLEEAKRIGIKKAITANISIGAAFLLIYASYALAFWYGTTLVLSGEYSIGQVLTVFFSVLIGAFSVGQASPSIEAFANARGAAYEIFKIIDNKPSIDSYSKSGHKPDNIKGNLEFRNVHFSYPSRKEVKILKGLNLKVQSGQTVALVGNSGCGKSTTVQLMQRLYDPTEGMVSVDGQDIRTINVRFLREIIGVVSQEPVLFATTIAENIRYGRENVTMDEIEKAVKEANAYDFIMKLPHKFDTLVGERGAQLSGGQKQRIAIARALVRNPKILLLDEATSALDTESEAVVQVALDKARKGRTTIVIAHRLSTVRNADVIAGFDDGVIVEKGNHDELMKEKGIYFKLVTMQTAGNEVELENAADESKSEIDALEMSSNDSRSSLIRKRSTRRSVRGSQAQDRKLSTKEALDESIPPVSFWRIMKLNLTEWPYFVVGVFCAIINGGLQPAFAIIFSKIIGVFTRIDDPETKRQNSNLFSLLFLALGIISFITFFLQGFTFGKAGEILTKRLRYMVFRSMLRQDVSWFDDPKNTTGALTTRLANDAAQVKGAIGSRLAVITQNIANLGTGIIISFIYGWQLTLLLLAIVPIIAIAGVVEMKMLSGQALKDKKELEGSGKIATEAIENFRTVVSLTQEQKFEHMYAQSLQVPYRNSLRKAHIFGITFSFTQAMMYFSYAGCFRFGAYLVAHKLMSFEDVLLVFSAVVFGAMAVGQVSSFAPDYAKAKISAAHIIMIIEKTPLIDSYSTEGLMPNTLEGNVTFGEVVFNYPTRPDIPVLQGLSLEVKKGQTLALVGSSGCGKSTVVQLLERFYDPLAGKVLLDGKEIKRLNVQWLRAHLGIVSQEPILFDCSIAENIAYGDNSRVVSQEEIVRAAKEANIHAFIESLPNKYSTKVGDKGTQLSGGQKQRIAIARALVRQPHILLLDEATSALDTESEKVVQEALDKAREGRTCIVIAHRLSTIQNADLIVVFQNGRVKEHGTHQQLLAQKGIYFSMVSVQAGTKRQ

Row | Structure (SMILES) | ABC transporter transport assay, ABCB1 (summary) (human ABCB1 [1]) | Resistance modulation by ABCB1 (fold increase in IC50) [2] | ABC transporter modified cytotoxicity, ABCB1 (summary) [2] | IC50 (parental A431 cell line; Homo sapiens, A-431, 72 h) [µM] | IC50 (parental A431 cell line) [µM] | Effect on ABCB1-ATPase activity (in words) (human ABCB1 [3]) | ABCB1 ATPase Vmax (human ABCB1 [3]) | Complete inhibition of MtTopoI (MtTopo-I) [µM] | Resistance modulation by ABCG2 (fold increase in IC50) [4] | ABC transporter modified cytotoxicity, ABCG2 (summary) [4] | IC50 (HFF cell line; Homo sapiens, HFF) [µM] | IC50 (HFF cell line) [µM] | IC50 (HEK293 cell line) [µM] | ABC transporter transport assay, ABCG2 (summary) (human ABCG2 [5]) | Toxicity in human cell lines (in words) [6] | Toxicity in mammalian cell lines (summary) [6] | ABC transporter ATPase assay, ABCG2 (summary) (human ABCG2 [7]) | ABCG2 ATPase Vmax (human ABCG2 [7]) | MIC90 (H37Rv Mtb strain; [8]) [µM] | Toxicity in H37Rv assay (summary) (H37Rv Mtb strain) | other results
1 | CN(C)CCCNc1nc(/C=C/c2ccc(Cl)cc2)nc2cc3ccccc3cc12 [VCC450822] | 0 | 0.97±0.05 | 0 | < 5 | 3.5 | well measurable stimulatory effect; also recorded: slight stimulation of the ABCB1-ATPase activity at lower concentrations; also recorded: strongly inhibited ATPase activity at higher concentrations; also recorded: slightly increased | 10.5±1.5 | 10.0 | 1.0±0.03 | 0 | < 5 | 2.5 to 5 | 10 to 20 | 0 | toxic | + | 0 | 23.3±2 | 5.1 (≈ 2.13 µg/mL) | + | Resistance modulation by ABCB1 (fold increase in IC50) ([2]; listed as VCC480522): no difference; Resistance modulation by ABCG2 (fold increase in IC50) ([4]; listed as VCC480522): no difference; Growth inhibition of H37Rv mycobacteria (in words) (H37Rv Mtb strain): effectively inhibited the growth
2 | COc1ccc(/C=C/c2nc(NCCCN3CCOCC3)c3cc4ccccc4cc3n2)cc1 [VCC478498] | + |  | 0 | < 5 | 3.03 |  | 7.2±1.8 | 10 to 25 |  | 0 | < 5 | 2.5 to 5 | 10 to 20 | + | toxic | + | - | 21.5±2.4 | 0.6 (≈ 0.273 µg/mL) | + | ABC transporter ATPase assay, ABCB1 (summary) (human ABCB1 [3]): 0; ABCB1 ATPase, concentration at Vmax (human ABCB1 [3]): 6.25 µM; Effect on ABCG2-ATPase activity (in words) (human ABCG2 [7]; Sf9 membrane vesicles, 0.1–10 μM for stimulation, 50 μM for inhibition): only an inhibition; ABCG2 ATPase, concentration at Vmax (human ABCG2 [7]): 2; Growth inhibition of H37Rv mycobacteria (in words) (H37Rv Mtb strain): effectively inhibited the growth
3 | CC(C)CCNc1nc2cc3ccccc3cc2nc1NCCC(C)C [VCC979812] | + | 1.1±0.08 | 0 | 19 |  | well measurable stimulatory effect; also recorded: slightly increased | 15.8±2 | 10 | 1±0.1 | 0 | 20 |  |  | + |  |  | 0 | 22±3 |  | 0 | ABC transporter ATPase assay, ABCB1 (summary) (human ABCB1 [3]): +; ABCB1 ATPase, concentration at Vmax (human ABCB1 [3]): 12.5 µM; Toxicity in HEK293 cell line, IC50 (HEK293 cell line; Non-toxic = not toxic up to 20 μM): Non-toxic; Toxicity in mammalian cell lines (summary) ([6]; human, 72 h): 0/slight; ABCG2 ATPase, concentration at Vmax (human ABCG2 [7]): 0.4; MIC90 of compounds in H37Rv growth test (H37Rv Mtb strain; [8]): N.I.

Source: publication PMC6124754, “Characterization of new, efficient Mycobacterium tuberculosis topoisomerase-I inhibitors and their interaction with human ABC multidrug transporters” (PLoS ONE, 2018)
